Laboratory results reported in ChEMBL document CHEMBL4229379, “Synthesis and structure-activity relationship of novel bisindole amidines active against MDR Gram-positive and Gram-negative bacteria” (Eur J Med Chem, 2018).
Converted amounts (≈) assume the structure as drawn.

Experiments:
Enterobacter cloacae [1] = experiment: Antibacterial activity against new delhi metallo-beta-lactamase-1 harboring Enterobacter cloacae CDC1000654 after 18 hrs by CLSI broth microdilution method; assay type: functional; conditions: CDC1000654, 18 h
Enterococcus faecalis [2] = experiment: Antibacterial activity against vancomycin-resistant Enterococcus faecalis ATCC 51299 after 18 hrs by CLSI broth microdilution method; assay type: functional; conditions: ATCC 51299, 18 h
Escherichia coli [3] = experiment: Antibacterial activity against extended-spectrum beta-lactamase deficient Escherichia coli ATCC 25922 after 18 hrs by CLSI broth microdilution method; assay type: functional; conditions: ATCC 25922, 18 h
Proteus mirabilis = experiment: Antibacterial activity against Proteus mirabilis 12-6 after 18 hrs by CLSI broth microdilution method; assay type: functional; conditions: 12-6, 18 h
Citrobacter freundii = experiment: Antibacterial activity against Citrobacter freundii ATCC 43864 after 18 hrs by CLSI broth microdilution method; assay type: functional; conditions: ATCC 43864, 18 h
[4] = system: Staphylococcus epidermidis; experiment: Antibacterial activity against methicillin-sensitive Staphylococcus epidermidis ATCC 12228 after 18 hrs by CLSI broth microdilution method; assay type: functional; conditions: ATCC 12228, 18 h
Escherichia coli [5] = experiment: Antibacterial activity against extended-spectrum beta-lactamase harboring Escherichia coli 12-15 after 18 hrs by CLSI broth microdilution method; assay type: functional; conditions: 12-15, 18 h
Enterococcus faecalis [6] = experiment: Antibacterial activity against vancomycin-sensitive Enterococcus faecalis ATCC 29212 after 18 hrs by CLSI broth microdilution method; assay type: functional; conditions: ATCC 29212, 18 h
Klebsiella pneumoniae [7] = experiment: Antibacterial activity against extended-spectrum beta-lactamase deficient Klebsiella pneumoniae 7 after 18 hrs by CLSI broth microdilution method; assay type: functional; conditions: Klebsiella pneumoniae, 7, 18 h
Klebsiella pneumoniae [8] = experiment: Antibacterial activity against extended-spectrum beta-lactamase harboring Klebsiella pneumoniae ATCC 700603 after 18 hrs by CLSI broth microdilution method; assay type: functional; conditions: Klebsiella pneumoniae, 700603, 18 h
[9] = Cytotoxicity against HEK293T cells assessed as reduction in cell viability after 48 hrs by MTS assay; assay type: cell-based, HEK-293T; conditions: human
Enterococcus faecalis [10] = experiment: Antibacterial activity against vancomycin-resistant Enterococcus faecalis 09-9 after 18 hrs by CLSI broth microdilution method; assay type: functional; conditions: 09-9, 18 h
Enterococcus faecium [11] = experiment: Antibacterial activity against vancomycin-resistant Enterococcus faecium ATCC 700221 after 18 hrs by CLSI broth microdilution method; assay type: functional; conditions: ATCC 700221, 18 h
[12] = system: Acinetobacter calcoaceticus; experiment: Antibacterial activity against carbapenem-resistant Acinetobacter calcoaceticus 12-6 after 18 hrs by CLSI broth microdilution method; assay type: functional; conditions: 12-6, 18 h
Enterococcus faecium [13] = experiment: Antibacterial activity against vancomycin-sensitive Enterococcus faecium 12-3 after 18 hrs by CLSI broth microdilution method; assay type: functional; conditions: 12-3, 18 h
Klebsiella pneumoniae [14] = experiment: Antibacterial activity against carbapenem-resistant Klebsiella pneumoniae 12-11 after 18 hrs by CLSI broth microdilution method; assay type: functional; conditions: 12-11, 18 h
Staphylococcus aureus [15] = experiment: Antibacterial activity against methicillin-resistant Staphylococcus aureus ATCC 33591 after 18 hrs by CLSI broth microdilution method; assay type: functional; conditions: ATCC 33591, 18 h
Escherichia coli [16] = experiment: Antibacterial activity against extended-spectrum beta-lactamase deficient Escherichia coli 1515 after 18 hrs by CLSI broth microdilution method; assay type: functional; conditions: Escherichia coli, 1515, 18 h
Escherichia coli [17] = experiment: Antibacterial activity against extended-spectrum beta-lactamase harboring Escherichia coli 13-1 after 18 hrs by CLSI broth microdilution method; assay type: functional; conditions: 13-1, 18 h
Staphylococcus aureus [18] = experiment: Antibacterial activity against methicillin-resistant Staphylococcus aureus ATCC 33591 infected in ICR mouse assessed as mouse survival at 2.5 mg/kg, iv administered at 1 and 5 hrs post infection and measured on day 7 day post last dose (reference value: 0%); assay type: functional; conditions: ATCC 33591, iv
Klebsiella pneumoniae [19] = experiment: Antibacterial activity against new delhi metallo-beta-lactamase-1 harboring Klebsiella pneumoniae 13-1 after 18 hrs by CLSI broth microdilution method; assay type: functional; conditions: 13-1, 18 h
Pseudomonas aeruginosa [20] = experiment: Antibacterial activity against Pseudomonas aeruginosa ATCC 27853 after 18 hrs by CLSI broth microdilution method; assay type: functional; conditions: ATCC 27853, 18 h
Escherichia coli [21] = experiment: Antibacterial activity against extended-spectrum beta-lactamase deficient Escherichia coli 12-14 after 18 hrs by CLSI broth microdilution method; assay type: functional; conditions: 12-14, 18 h
Enterobacter cloacae [22] = experiment: Antibacterial activity against Enterobacter cloacae ATCC 43560 after 18 hrs by CLSI broth microdilution method; assay type: functional; conditions: ATCC 43560, 18 h
[23] = system: Stenotrophomonas maltophilia; experiment: Antibacterial activity against Stenotrophomonas maltophilia ATCC 13636 after 18 hrs by CLSI broth microdilution method; assay type: functional; conditions: ATCC 13636, 18 h
Staphylococcus aureus [24] = experiment: Antibacterial activity against methicillin-resistant Staphylococcus aureus ATCC 33591 infected in ICR mouse assessed as mouse survival at 3 mg/kg, iv administered at 1 and 5 hrs post infection and measured on day 7 day post last dose (reference value: 0%); assay type: functional; conditions: ATCC 33591, iv
Escherichia coli [25] = experiment: Antibacterial activity against extended-spectrum beta-lactamase harboring Escherichia coli CDC1001728 after 18 hrs by CLSI broth microdilution method; assay type: functional; conditions: CDC1001728, 18 h
[26] = system: Staphylococcus epidermidis; experiment: Antibacterial activity against methicillin-sensitive Staphylococcus epidermidis 12-6 after 18 hrs by CLSI broth microdilution method; assay type: functional; conditions: 12-6, 18 h
Staphylococcus aureus [27] = experiment: Antibacterial activity against methicillin-resistant Staphylococcus aureus ATCC 33591 infected in ICR mouse assessed as mouse survival administered intravenously at 1 and 5 hrs post infection and measured on day 7 day post last dose (reference value: 0%); assay type: functional; conditions: ATCC 33591, iv
Klebsiella pneumoniae [28] = experiment: Antibacterial activity against extended-spectrum beta-lactamase deficient Klebsiella pneumoniae 12-4 after 18 hrs by CLSI broth microdilution method; assay type: functional; conditions: 12-4, 18 h
Klebsiella pneumoniae [29] = experiment: Antibacterial activity against new delhi metallo-beta-lactamase-1 harboring Klebsiella pneumoniae ATCC BAA-2146 after 18 hrs by CLSI broth microdilution method; assay type: functional; conditions: ATCC BAA-2146, 18 h
Staphylococcus aureus [30] = experiment: Antibacterial activity against methicillin-resistant Staphylococcus aureus 12-33 after 18 hrs by CLSI broth microdilution method; assay type: functional; conditions: 12-33, 18 h
Klebsiella aerogenes = experiment: Antibacterial activity against carbapenem-resistant Enterobacter aerogenes 11-4 after 18 hrs by CLSI broth microdilution method; assay type: functional; conditions: 11-4, 18 h
Providencia rettgeri = experiment: Antibacterial activity against Providencia rettgeri ATCC 31052 after 18 hrs by CLSI broth microdilution method; assay type: functional; conditions: ATCC 31052, 18 h
Enterococcus faecium [31] = experiment: Antibacterial activity against vancomycin-resistant Enterococcus faecium 12-1 after 18 hrs by CLSI broth microdilution method; assay type: functional; conditions: 12-1, 18 h
Enterobacter cloacae [32] = experiment: Antibacterial activity against new delhi metallo-beta-lactamase-1 harboring Enterobacter cloacae 13-1 after 18 hrs by CLSI broth microdilution method; assay type: functional; conditions: 13-1, 18 h
[33] = system: Acinetobacter calcoaceticus; experiment: Antibacterial activity against Acinetobacter calcoaceticus ATCC 19606 after 18 hrs by CLSI broth microdilution method; assay type: functional; conditions: ATCC 19606, 18 h
Pseudomonas aeruginosa [34] = experiment: Antibacterial activity against Pseudomonas aeruginosa 12-16 after 18 hrs by CLSI broth microdilution method; assay type: functional; conditions: 12-16, 18 h
Staphylococcus aureus [35] = experiment: Antibacterial activity against methicillin-resistant Staphylococcus aureus ATCC 33591 infected in ICR mouse assessed as mouse survival at 3.5 mg/kg, iv administered at 1 and 5 hrs post infection and measured on day 7 day post last dose (reference value: 0%); assay type: functional; conditions: ATCC 33591, iv

Work on CN(C)C(=N)c1ccc2cc(-c3ccc(-c4cc5ccc(C(=N)N(C)C)cc5[nH]4)cc3)[nH]c2c1 yielded an MIC (Enterobacter cloacae [1]) of 4 µg/mL (≈ 8.92 µM), an MIC (Enterococcus faecalis [2]) of 1 µg/mL (≈ 2.23 µM) and an MIC (Escherichia coli [3]) of 1 µg/mL (≈ 2.23 µM). It also gave an MIC (Proteus mirabilis) of 8 µg/mL (≈ 17.8 µM), an MIC (Citrobacter freundii) of 2 µg/mL (≈ 4.46 µM) and an MIC [4] of 0.125 µg/mL (≈ 0.279 µM). For the same molecule, the MIC (Escherichia coli [5]) was 2 µg/mL (≈ 4.46 µM), the MIC (Enterococcus faecalis [6]) was 1 µg/mL (≈ 2.23 µM) and the MIC (Klebsiella pneumoniae [7]) was 2 µg/mL (≈ 4.46 µM). For the same molecule, the MIC (Klebsiella pneumoniae [8]) was 4 µg/mL (≈ 8.92 µM), the CC50 at 48 h [9] was 4.13 µg/mL (≈ 9.21 µM) and the MIC (Enterococcus faecalis [10]) was 1 µg/mL (≈ 2.23 µM). For the same molecule, the MIC (Enterococcus faecium [11]) was 1 µg/mL (≈ 2.23 µM), the MIC [12] was 8 µg/mL (≈ 17.8 µM) and the MIC (Enterococcus faecium [13]) was 1 µg/mL (≈ 2.23 µM). For the same molecule, the MIC (Klebsiella pneumoniae [14]) was 8 µg/mL (≈ 17.8 µM), the MIC (Staphylococcus aureus [15]) was 0.25 µg/mL (≈ 0.557 µM) and the MIC (Escherichia coli [16]) was 1 µg/mL (≈ 2.23 µM). For the same molecule, the MIC (Escherichia coli [17]) was 2 µg/mL (≈ 4.46 µM), the survival at 2.5 mg/kg (Staphylococcus aureus [18]) was 50% and the MIC (Klebsiella pneumoniae [19]) was 4 µg/mL (≈ 8.92 µM). For the same molecule, the MIC (Pseudomonas aeruginosa [20]) was 4 µg/mL (≈ 8.92 µM), the MIC (Escherichia coli [21]) was 1 µg/mL (≈ 2.23 µM) and the MIC (Enterobacter cloacae [22]) was 1 µg/mL (≈ 2.23 µM). For the same molecule, the MIC [23] was 8 µg/mL (≈ 17.8 µM), the survival at 3 mg/kg (Staphylococcus aureus [24]) was 60% and the MIC (Escherichia coli [25]) was 2 µg/mL (≈ 4.46 µM). It also gave an MIC [26] of 0.125 µg/mL (≈ 0.279 µM), an ED50 (Staphylococcus aureus [27]) of 2.62 mg/kg and an ED95 (Staphylococcus aureus [27]) of 4.62 mg/kg. For the same molecule, the MIC (Klebsiella pneumoniae [28]) was 4 µg/mL (≈ 8.92 µM), the MIC (Klebsiella pneumoniae [29]) was 2 µg/mL (≈ 4.46 µM) and the MIC (Staphylococcus aureus [30]) was 0.25 µg/mL (≈ 0.557 µM). The MIC (Klebsiella aerogenes) was 8 µg/mL (≈ 17.8 µM), the MIC (Providencia rettgeri) was 2 µg/mL (≈ 4.46 µM) and the MIC (Enterococcus faecium [31]) was 0.5 µg/mL (≈ 1.11 µM). The MIC (Enterobacter cloacae [32]) was 4 µg/mL (≈ 8.92 µM), the MIC [33] was 8 µg/mL (≈ 17.8 µM) and the MIC (Pseudomonas aeruginosa [34]) was 64 µg/mL (≈ 143 µM). It also gave a survival at 3.5 mg/kg (Staphylococcus aureus [35]) of 80%.
